Results from patent publication US9763934B2, “Synergistic effect of poloxamer-based composition and itraconazole on fungus and yeast” (Professional Compounding Centers of America (PCCA), priority 2014, dated 2017).

Test system: C. albicans ATCC 90028 biofilm
Experiment: Antifungal biofilm susceptibility testing (MBIC), NCCLS M27-A broth microdilution, CellTiter 96 viability readout
Format: cell-based, Candida albicans
Experimental: Materials: Itraconazole EP Micronized (lot number C149307) and PCCA Formula #10342 (4 g of Itraconazole EP Micronized +37.574 g of Poloxamer composition) were provided by PCCA (Houston, Tex., USA) as powders. Itraconazole and PCCA Formula #10342 were prepared on the day of the assay. Fluconazole and amphotericin B were obtained as powders and stored at 4° C. […] Strain: Candida albicans isolate ATCC 90028 was obtained from American Type Culture Collection (Manassas, Va.), and used in the course of this study. Methods: To determine antimicrobial activity of itraconazole and micronized poloxamer composition 202 against biofilms of Candida albicans, an antifungal biofilm susceptibility testing was developed in conditions where a Minimum Biofilm Inhibitory Concentration (MBIC) of itraconazole in a micronized poloxamer composition 202, micronized poloxamer excipient, itraconazole, fluconazole and amphotericin B was measured for the C. albicans biofilm according to the NCCLS M27-A broth microdilution method (NCCLS, 1997). The testing medium used for growing was RPMI 1640 (American Biorganics, Inc., […].) supplemented with L-glutamine (Sigma Aldrich®). […] Cell viability was determined by using CellTiter 96® Non-Radioactive Cell Proliferation Assay (Promega, 2013).

C[C@@H]1[C@H](O)[C@@H](C)/C=C/C=C/C=C/C=C/C=C/C=C/C=C/[C@H](O[C@@H]2O[C@H](C)[C@@H](O)[C@H](N)[C@@H]2O)C[C@@H]2O[C@](O)(C[C@@H](O)C[C@@H](O)[C@H](O)CC[C@@H](O)C[C@@H](O)CC(=O)O[C@H]1C)C[C@H](O)[C@H]2C(=O)O [Amphotericin B, amphotericin B]
MBIC: 0.5 µg/mL | Minimum Biofilm Inhibitory Concentration (48 h at 35° C., lowest concentration giving 50% reduction of fungal growth, combination value expressed as concentration of itraconazole): 0.5 µg/mL
